Measured values as given in US20040197407A1, “Methods and dosage forms with modified layer geometry” (priority 2003, published 2004).
Structures can show the parent of a compound that is named as a salt.

Assays:
[1] = in vivo; cited from earlier work
[2] = in vivo; cited from earlier work; remark: listed apart in the source
[3] = FIG. 6
Description: FIG. 6 illustrates blood plasma concentrations at various times achieved through various means of delivery. This figure illustrates the time necessary to achieve a particular blood plasma concentration.

[4] = cited from earlier work

Row | Structure (SMILES) | half-life [1] | reported side effects [2] | colonic absorption [3] | solubility in alcohol ([4]; alcohol) | solubility in hydrocarbon solvents ([4]; hydrocarbon solvents) | solubility in isopropanol ([4]; isopropanol) | solubility in water ([4]; water)
1 | CN(C)CCC=C1c2ccccc2C=Cc2ccccc21 [cyclobenzaprine] | 24 to 72 h | sedation and dry mouth | colonic absorption |  |  |  | 
2 | CN(C)CCC=C1c2ccccc2C=Cc2ccccc21 [Cyclobenzaprine hydrochloride, cyclobenzaprine hydrochloride] |  |  |  | freely soluble | insoluble | sparingly soluble | freely soluble
